Test system: obese-diabetic viable yellow (AvY) mice
Assay: Demonstration of hypoglycemic efficacy: blood glucose after 14 days of compound admixed in diet
Format: in vivo
Conditions: blood glucose at day 14 as percent of initial (day 0) value, male AvY mice
Procedure: Male obese-diabetic viable yellow (AvY) mice were divided into two groups of 6 each. One group was fed repelletized purina 5008 Chow and the second group was fed repelletized Purina 5008 Chow, admixed with varying doses of the candidate compound. Blood samples were taken before the experiment was initiated and 7 and 14 days after initiation. Body weight and food consumption were monitored. The blood glucose level after 7 or 14 days of treatment was measured and recorded as a percent of the initial value, compared to the untreated control (first) group. The results are presented in the table 1 below; and include the dose of the candidate compound as a weight percent of the amount incorporated into the diet. Also in the table is a representative value for a positive control (a known hypoglycemic agent as disclosed by T. Sohda, K. Mizuno, Y. Momose, H. Ikeda, T. Fujita, and K. Meguro, J. Med. Chem., 1992, 35, 2617) administered in the same way as a candidate compound of the present invention.
BG means blood glucose level; BG0 means blood glucose level at day zero and BG14 means blood glucose level at day 14 accordingly. Takeda “Compound 17” is disclosed by T. Sohda, K. Mizuno, Y. Momose, H. Ikeda, T. Fujita, and K. Meguro, J. Med. Chem., 1992, 35, 2617.

[1] = dose .03 weight percent in diet (Purina 5008 Chow)

Compound: 3-(4-(2-Phenyl-4-oxazolyl)ethoxy)phenyl-4-methylsulfonyl-1H-1,2-pyrazoline [Example 3]
- % BG14 (BGO = 100) (dose .01 weight percent in diet (Purina 5008 Chow)): 72%

Compound: O=c1ccn(S(=O)(=O)c2ccc3ccccc3c2)[nH]1 [Example 4, 2-Naphthylsulfonyl-pyrazolin-3-one]
- % BG14 (BGO = 100) (dose .1 weight percent in diet (Purina 5008 Chow)): 94%

Compound: O=c1[nH][nH]cc1S(=O)(=O)c1ccc(OCCc2coc(-c3ccccc3)n2)cc1 [Example 1, 4-(4-[2-(2-Phenyl-4-oxazolyl)ethoxy]phenylsulfonyl)-1H,2H-prazolin-3-one]
- % BG14 (BGO = 100) [1]: 32%

Compound: O=c1[nH][nH]cc1S(=O)(=O)Cc1ccc(OCCc2coc(-c3ccccc3)n2)cc1 [Example 2, 4-(4-[2-(2-Phenyl-4-oxazolyl)ethoxy]phenylmethylsulfonyl)-1H,2H-prazolin-3-one]
- % BG14 (BGO = 100) [1]: 81%
